We go through 22 molecules from ChEMBL document CHEMBL1150345 (J Med Chem, 2008).

Test [1] has as its target T1, Histamine H4 receptor (Homo sapiens, UniProt Q9H3N8). Put plainly: Displacement of [3H]histamine from human histamine H4 receptor expressed in […] cells at 5 uM. In kind it is cell-based. The following applies: SK-N-MC.
Test [2] concerns the target T1, Histamine H4 receptor. Put plainly: biochemical. The class given is cell-based, SK-N-MC.

T1 sequence (Q9H3N8 whole entry): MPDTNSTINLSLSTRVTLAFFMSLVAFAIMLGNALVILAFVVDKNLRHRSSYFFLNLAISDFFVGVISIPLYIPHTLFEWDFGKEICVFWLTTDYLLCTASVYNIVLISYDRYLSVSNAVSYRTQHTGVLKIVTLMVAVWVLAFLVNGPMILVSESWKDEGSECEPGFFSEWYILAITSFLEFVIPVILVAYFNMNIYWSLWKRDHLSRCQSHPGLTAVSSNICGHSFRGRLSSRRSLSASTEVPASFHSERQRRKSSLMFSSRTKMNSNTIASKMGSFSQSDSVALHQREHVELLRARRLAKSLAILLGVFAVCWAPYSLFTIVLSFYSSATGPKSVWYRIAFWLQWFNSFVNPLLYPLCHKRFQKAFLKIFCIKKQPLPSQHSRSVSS

`NCCNC(=O)c1cc2ccccc2[nH]1` returned an Activity on Histamine H4 receptor [1] of 46.9%.
On the same count and under the same terms, the figure for `Cc1cc(C)nc(N/C(N)=N/CCc2c[nH]cn2)n1` is 95.8%.
`NC(=NCc1ccc(Cl)cc1)SCCCc1cnc[nH]1` [CLOBENPROPIT] had a Ki at Histamine H4 receptor [2] of 0.005 µM.
At Histamine H4 receptor [1], `CC(/C=C(\C)NNC(=N)N)=N/NC(=N)N` yielded an Activity of 64.3%. The same molecule showed an inhibition constant Ki on Histamine H4 receptor [2] of 0.897 µM.
For `C/N=C(\N)N/N=C(/C)c1ccc2sc3ccc(/C(C)=N\N/C(N)=N/C)cc3c2c1`, in that order: 72% and 1.48 µM.
Consider `CN(C)CCCNC(=O)/C(=C\c1cn(-c2ccccc2)nc1-c1ccc(Br)cc1)NC(=O)c1ccccc1`, for which, at Histamine H4 receptor [1], the Activity stood at 29.4%.
On the same count and under the same terms, the figure for `N=C(N)NN=C1C=CC(=NNC(=N)N)C=C1` is 44%; for `N=C(N)NN/C(=C(\O)c1ccccc1)c1ccccc1` it is 34.7%.
Consider `N=C(N)SCCc1cnc[nH]1` [IMETIT], for which, at Histamine H4 receptor [2], the affinity corresponds to a Ki of 0.0036 µM.
As for `N=C(N)NC(=N)Nc1ccc(Cl)cc1C(=O)c1ccccc1`, on Histamine H4 receptor [1], the Activity was 37.1%.
`C[C@@H](N)Cc1c[nH]cn1` had a Ki at Histamine H4 receptor [2] of 0.184 µM.
The molecule `COc1cccc(C2NCCc3[nH]cnc32)c1` (stereo unspecified) came in with an Activity on Histamine H4 receptor [1] of 20.9%.
The molecule `NC(=NCCc1ccc(I)cc1)SCCCc1cnc[nH]1` [IODOPHENPROPIT] had a Ki on Histamine H4 receptor [2] of 0.0078 µM.
Turning to `CCOC(=O)c1ccc(NC2=CC(=O)/C(=N\NC(=N)N)c3ccccc32)cc1`, the Activity at Histamine H4 receptor [1] came to 92.6%. The molecule further had a Ki at Histamine H4 receptor [2] of 0.219 µM.
On Histamine H4 receptor [1], `CN1CCN(c2ccccc2NC(=S)NC(=O)c2cc3ccccc3o2)CC1` had an Activity of 50.3%.
In turn, `CN(C)CCCSC(=N)N` showed a Ki at Histamine H4 receptor [2] of 0.09 µM.
On the same count and under the same terms, the figure for `Cc1cc(C)nc(N=C(N)NCCc2cnc[nH]2)n1` is 0.085 µM.
`C[n+]1cccc(NC(=O)c2ccc(NC(=O)c3ccc(C(=O)Nc4ccc(NC(=N)N)cc4)cc3)cc2)c1` came in with an Activity on Histamine H4 receptor [1] of 26%.
With `N=C(N)NCc1cccc(CNC(=N)N)n1`, the Activity on Histamine H4 receptor [1] was found to be 67.8%. The Ki on Histamine H4 receptor [2] worked out at 1.24 µM.
`CN1CCN(C(=O)c2cccc(Nc3nc(-c4ccccc4)c4cc(Br)ccc4n3)c2)CC1` showed an Activity on Histamine H4 receptor [1] of 23%.
At Histamine H4 receptor [1], `CN(CCN(C)c1ccc(N)cc1)c1ccc(N)cc1` yielded an Activity of 34.3%.
On the same count and under the same terms, the figure for `CC(/C=C/NNC(=N)N)=N/NC(=N)N` is 33.9%.
